Reference: ChEMBL document CHEMBL1140031, “Cyclic voltammetric analysis of 2-styrylchromones: relationship with the antioxidant activity” (Bioorg Med Chem, 2008)

Assays:
Type in all cases: functional
[1] = Antioxidant activity assessed as singlet oxygen scavenging activity
[2] = Antioxidant activity assessed as H2O2 scavenging activity at 125 uM
[3] = Antioxidant activity assessed as hypochlorous acid scavenging activity
[4] = Antioxidant activity assessed as peroxynitrite radical scavenging activity in absence of NaHCO3
[5] = Antioxidant activity assessed as peroxynitrite radical scavenging activity in presence of NaHCO3
[6] = Antioxidant activity assessed as superoxide radical scavenging activity

Which IC30 [1] does the source give for `O=c1cc(/C=C/c2ccc(O)cc2)oc2cc(O)cc(O)c12` here?
Its IC30 is 72300 nM.

What about the Activity [2] of the same compound?
The Activity was 10.6%.

And the IC50 [3]?
The IC50 was 8500 nM.

What about the IC50 [4] of the same compound?
The IC50 was 1250 nM.

What about the IC50 [5] of the same compound?
Its IC50 is 1210 nM.

With `O=c1cc(/C=C/c2ccc(O)c(O)c2)oc2cc(O)ccc12` as the compound, how does the IC30 [1] read?
The IC30 was 3700 nM.

What about the Activity [2] of the same compound?
Its Activity is 50.8%.

And the IC50 [3]?
The IC50 was 18000 nM.

And the IC27 [6]?
Its IC27 is 18.9 µM.

What about the IC50 [4] of the same compound?
The IC50 was 300 nM.

And the IC50 [5]?
Its IC50 is 610 nM.

With `O=c1cc(/C=C/c2ccccc2)oc2cc(O)cc(O)c12` as the compound, how does the IC30 [1] read?
Its IC30 is 81300 nM.

What about the IC50 [3] of the same compound?
The IC50 was 5700 nM.

And the IC27 [6]?
Its IC27 is 125 µM.

What about the IC50 [4] of the same compound?
Its IC50 is 46600 nM.

What about the IC50 [5] of the same compound?
The IC50 was 40600 nM.

For `O=c1cc(/C=C/c2ccc(O)cc2)oc2ccccc12`, which IC30 [1] is on record?
Its IC30 is 105000 nM.

What about the IC27 [6] of the same compound?
Its IC27 is 56 µM.

What about the IC50 [4] of the same compound?
The IC50 was 1200 nM.

What about the IC50 [5] of the same compound?
Its IC50 is 1230 nM.

What does the source list for `O=c1cc(/C=C/c2ccc(O)c(O)c2)oc2cccc(O)c12`?
IC30 [1]: 1900 nM; Activity [2]: 50.8%; IC50 [3]: 16900 nM; IC27 [6]: 46.6 µM; IC50 [4]: 260 nM; IC50 [5]: 510 nM

Which IC30 [1] does the source give for `O=c1cc(/C=C/c2ccc(O)c(O)c2)oc2ccccc12` here?
Its IC30 is 2700 nM.

And the Activity [2]?
Its Activity is 44.1%.

And the IC50 [3]?
The IC50 was 31200 nM.

What about the IC27 [6] of the same compound?
Its IC27 is 42.4 µM.

And the IC50 [4]?
Its IC50 is 240 nM.

What about the IC50 [5] of the same compound?
Its IC50 is 440 nM.

With `O=c1cc(/C=C/c2ccc(O)cc2)oc2cccc(O)c12` as the compound, how does the IC30 [1] read?
The IC30 was 40000 nM.

What about the Activity [2] of the same compound?
The Activity was 16.9%.

What about the IC50 [4] of the same compound?
The IC50 was 1040 nM.

What about the IC50 [5] of the same compound?
The IC50 was 980 nM.

Which IC50 [3] does the source give for `O=c1cc(/C=C/c2ccccc2)oc2cc(O)ccc12` here?
Its IC50 is 72300 nM.

And the IC27 [6]?
Its IC27 is 55.9 µM.

What does the source list for `O=c1cc(/C=C/c2ccc(O)c(O)c2)oc2cc(O)cc(O)c12`?
IC30 [1]: 2300 nM; Activity [2]: 66.7%; IC50 [3]: 3900 nM; IC27 [6]: 28.8 µM; IC50 [4]: 260 nM; IC50 [5]: 630 nM

For `O=c1cc(/C=C/c2ccc(O)cc2)oc2cc(O)ccc12`, which IC30 [1] is on record?
The IC30 was 93400 nM.

And the IC50 [3]?
The IC50 was 92000 nM.

What about the IC27 [6] of the same compound?
Its IC27 is 17.7 µM.

What about the IC50 [4] of the same compound?
Its IC50 is 1400 nM.

What about the IC50 [5] of the same compound?
Its IC50 is 1650 nM.
